PubChem BioAssay (NCI)
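Method: 48-hour compound exposure of cells in 96-well plates, five concentrations, linear interpolation of endpoints. The concentration for 50% growth inhibition is given as GI50. TGI marks complete inhibition of growth.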

Key:
Experiment in all cases: inhibition of tumour cell growth, NCI panel, 48 h
[1] = system: A498 renal
[2] = system: CAKI-1 renal
[3] = system: HCT-15 colon
[4] = system: HOP-62 NSCLC
[5] = system: IGROV1 ovarian
[6] = system: NCI-H460 lung
[7] = system: OVCAR-3 ovarian
[8] = system: OVCAR-8 ovarian
[9] = system: SF-268 CNS
[10] = system: RXF 393 renal

SMILES	GI50 [1] [µM]	TGI [1] [µM]	GI50 [2] [µM]	TGI [2] [µM]	GI50 [3] [µM]	TGI [3] [µM]	GI50 [4] [µM]	TGI [4] [µM]	GI50 [5] [µM]	TGI [5] [µM]	GI50 [6] [µM]	TGI [6] [µM]	GI50 [7] [µM]	TGI [7] [µM]	GI50 [8] [µM]	TGI [8] [µM]	GI50 [9] [µM]	TGI [9] [µM]	TGI [10] [µM]	GI50 [10] [µM]
COc1cc2[nH]c(C(=O)c3cc(OC)c(OC)c(OC)c3)c(N)c2cc1C#CC1CC1	3.23	61.1	2.54	> 100	2.3	> 100	2.64	> 100	6.01	> 100	3.55	> 100	1.53	5.74	5.3	> 100	9.08	> 100	–	–
NC(=O)NCc1c(C(N)=O)ncn1Cc1ccccc1	–	> 100	–	> 100	–	> 100	–	> 100	–	> 100	–	> 100	–	> 100	–	> 100	–	–	> 100	–
Cn1c2ccccc2c(=O)c2ccc(Cl)cc21	–	–	–	–	–	> 10	–	> 10	–	> 10	–	–	–	> 10	–	> 10	–	> 10	> 10	–
O=c1c2cc(Br)cc(Br)c2nc(CCCl)n1CCO	–	> 100	–	> 100	–	–	–	> 100	–	> 100	–	> 100	–	> 100	–	> 100	–	> 100	> 100	–
CC(=O)N[C@H]1CSSC[C@@H](C(N)=O)NC(=O)[C@H](C(C)C)NC(=O)[C@H](C)NC(=O)[C@H](Cc2cnc[nH]2)NC1=O	–	–	> 100	> 100	> 100	> 100	> 100	> 100	> 100	> 100	> 100	> 100	> 100	> 100	> 100	> 100	> 100	> 100	> 100	> 100
O=C(/C=C\c1ccc(NCc2ccc(C(=O)O)cc2)cc1)CCl	15	28.3	16.6	32.8	3.35	12.7	15.5	29.6	16.7	37.2	17	34.3	11.7	24.6	6.98	19.9	10.6	24.7	–	–
Clc1ccc2c(c1)-c1c3c(nn1-c1ccccc1)-c1ccccc1SC3O2 (configuration not stated)	–	> 100	–	–	–	–	–	> 100	–	> 100	–	> 100	–	> 100	–	> 100	–	> 100	> 100	–
COc1cc(NC(C)CCCN)c2nccc(C)c2c1 (configuration not stated)	–	–	–	56	–	49.7	–	34	–	44.6	–	54.7	–	67.9	–	–	–	> 100	–	–
O=C1NC(=O)C(CC2CCCCCCCCCCC2=O)C(=O)N1 (configuration not stated)	–	–	–	> 100	–	> 100	–	> 100	–	> 100	–	> 100	–	> 100	–	> 100	–	> 100	> 100	–
O=C(c1ccccc1)C1OC12C(=O)Nc1ccccc12 (configuration not stated)	–	> 100	–	46	–	–	–	> 100	–	> 100	–	> 100	–	97	–	> 100	–	> 100	54.7	–
